Measured values published in ChEMBL document CHEMBL4138123, “Design, synthesis and biological evaluation of novel pyrazolochalcones as potential modulators of PI3K/Akt/mTOR pathway and inducers of apoptosis in breast cancer cells” (Eur J Med Chem, 2017).

How the values were obtained:
SW-620 = assay: Cytotoxicity against human SW620 cells assessed as cell growth at 100 uM after 48 hrs by sulforhodamine B assay relative to control; assay type: functional; conditions: SW-620, 48 h, read-out: Activity
SR [1] = assay: Cytotoxicity against human SR cells assessed as cell growth at 10 uM after 48 hrs by sulforhodamine B assay relative to control; assay type: functional; conditions: read-out: Activity
BT-549 [2] = assay: Cytotoxicity against human BT549 cells assessed as cell growth at 0.01 uM after 48 hrs by sulforhodamine B assay relative to control; assay type: functional; conditions: BT-549, 48 h, read-out: Activity
MDA-MB-231 = assay: Cytotoxicity against human MDA-MB-231 cells assessed as growth inhibition after 48 hrs by MTT assay; assay type: functional, cell-based; conditions: MDA-MB-231, 48 h
NCI-H23 = assay: Cytotoxicity against human NCI-H23 cells assessed as cell growth at 100 uM after 48 hrs by sulforhodamine B assay relative to control; assay type: functional; conditions: NCI-H23, 48 h, read-out: Activity
SK-MEL-2 = assay: Cytotoxicity against human SK-MEL-2 cells assessed as growth inhibition after 48 hrs by sulforhodamine B assay; assay type: functional; conditions: SK-MEL-2, 48 h
M14 [3] = assay: Cytotoxicity against human M14 cells assessed as cell growth at 1 uM after 48 hrs by sulforhodamine B assay relative to control; assay type: functional; conditions: M14, 48 h, read-out: Activity
RXF 393 = assay: Cytotoxicity against human RXF393 cells assessed as cell growth at 10 uM after 48 hrs by sulforhodamine B assay relative to control; assay type: functional; conditions: RXF 393, 48 h, read-out: Activity
Hs-578T = assay: Cytotoxicity against human Hs 578T cells assessed as cell growth at 0.1 uM after 48 hrs by sulforhodamine B assay relative to control; assay type: functional; conditions: read-out: Activity
M14 [4] = assay: Cytotoxicity against human M14 cells assessed as cell growth at 100 uM after 48 hrs by sulforhodamine B assay relative to control; assay type: functional; conditions: M14, 48 h, read-out: Activity
RPMI-8226 = assay: Cytotoxicity against human RPMI8226 cells assessed as cell growth at 100 uM after 48 hrs by sulforhodamine B assay relative to control; assay type: functional; conditions: RPMI-8226, 48 h, read-out: Activity
SR [5] = assay: Cytotoxicity against human SR cells assessed as growth inhibition after 48 hrs by sulforhodamine B assay; assay type: functional; conditions: for CC50: read-out: LC50 (the source's name)
UACC-257 = assay: Cytotoxicity against human UACC257 cells assessed as growth inhibition after 48 hrs by sulforhodamine B assay; assay type: functional; conditions: UACC-257, 48 h
SF-539 = assay: Cytotoxicity against human SF539 cells assessed as growth inhibition after 48 hrs by sulforhodamine B assay; assay type: functional; conditions: SF-539, 48 h
NCI-H226 = assay: Cytotoxicity against human NCI-H226 cells assessed as cell growth at 0.01 uM after 48 hrs by sulforhodamine B assay relative to control; assay type: functional; conditions: NCI-H226, 48 h, read-out: Activity
OVCAR-5 = assay: Cytotoxicity against human OVCAR5 cells assessed as growth inhibition after 48 hrs by sulforhodamine B assay; assay type: functional; conditions: OVCAR-5, 48 h
M14 [6] = assay: Cytotoxicity against human M14 cells assessed as cell growth at 0.1 uM after 48 hrs by sulforhodamine B assay relative to control; assay type: functional; conditions: M14, 48 h, read-out: Activity
ACHN = assay: Cytotoxicity against human ACHN cells assessed as growth inhibition after 48 hrs by sulforhodamine B assay; assay type: functional
DU-145 = assay: Cytotoxicity against human DU145 cells assessed as cell growth at 0.1 uM after 48 hrs by sulforhodamine B assay relative to control; assay type: functional; conditions: DU-145, 48 h, read-out: Activity
HT-29 [7] = assay: Cytotoxicity against human HT-29 cells assessed as growth inhibition after 48 hrs by sulforhodamine B assay; assay type: functional; conditions: HT-29, 48 h
HL-60(TB) [8] = assay: Cytotoxicity against human HL-60(TB) cells assessed as cell growth at 100 uM after 48 hrs by sulforhodamine B assay relative to control; assay type: functional; conditions: HL-60, 48 h, read-out: Activity
HL-60(TB) [9] = assay: Cytotoxicity against human HL-60(TB) cells assessed as cell growth at 0.1 uM after 48 hrs by sulforhodamine B assay relative to control; assay type: functional; conditions: HL-60, 48 h, read-out: Activity
BT-549 [10] = assay: Cytotoxicity against human BT549 cells assessed as growth inhibition after 48 hrs by sulforhodamine B assay; assay type: functional; conditions: BT-549, 48 h
786-0 [11] = assay: Cytotoxicity against human 786-0 cells assessed as cell growth at 0.01 uM after 48 hrs by sulforhodamine B assay relative to control; assay type: functional; conditions: 786-0, 48 h, read-out: Activity
HT-29 [12] = assay: Cytotoxicity against human HT-29 cells assessed as cell growth at 1 uM after 48 hrs by sulforhodamine B assay relative to control; assay type: functional; conditions: HT-29, 48 h, read-out: Activity
SK-MEL-28 = assay: Cytotoxicity against human SK-MEL-28 cells assessed as cell growth at 1 uM after 48 hrs by sulforhodamine B assay relative to control; assay type: functional; conditions: SK-MEL-28, 48 h, read-out: Activity
NCI-H522 [13] = assay: Cytotoxicity against human NCI-H522 cells assessed as cell growth at 100 uM after 48 hrs by sulforhodamine B assay relative to control; assay type: functional; conditions: NCI-H522, 48 h, read-out: Activity
786-0 [14] = assay: Cytotoxicity against human 786-0 cells assessed as cell growth at 100 uM after 48 hrs by sulforhodamine B assay relative to control; assay type: functional; conditions: 786-0, 48 h, read-out: Activity
HOP-62 = assay: Cytotoxicity against human HOP62 cells assessed as cell growth at 1 uM after 48 hrs by sulforhodamine B assay relative to control; assay type: functional; conditions: HOP-62, 48 h, read-out: Activity
U-251 = assay: Cytotoxicity against human U251 cells assessed as cell growth at 0.1 uM after 48 hrs by sulforhodamine B assay relative to control; assay type: functional; conditions: U-251, 48 h, read-out: Activity
CCRF-CEM = assay: Cytotoxicity against human CCRF-CEM cells assessed as cell growth at 1 uM after 48 hrs by sulforhodamine B assay relative to control; assay type: functional; conditions: read-out: Activity
SN12C = assay: Cytotoxicity against human SN12C cells assessed as cell growth at 0.01 uM after 48 hrs by sulforhodamine B assay relative to control; assay type: functional; conditions: read-out: Activity
IGROV-1 = assay: Cytotoxicity against human IGROV1 cells assessed as cell growth at 100 uM after 48 hrs by sulforhodamine B assay relative to control; assay type: functional; conditions: IGROV-1, 48 h, read-out: Activity
NCI-H522 [15] = assay: Cytotoxicity against human NCI-H522 cells assessed as cell growth at 10 uM after 48 hrs by sulforhodamine B assay relative to control; assay type: functional; conditions: NCI-H522, 48 h, read-out: Activity
Malme-3M = assay: Cytotoxicity against human MALME-3M cells assessed as growth inhibition after 48 hrs by sulforhodamine B assay; assay type: functional
NCI/ADR-RES = assay: Cytotoxicity against human NCI/ADR-RES cells assessed as cell growth at 0.1 uM after 48 hrs by sulforhodamine B assay relative to control; assay type: functional; conditions: read-out: Activity

## COc1ccc(C(=O)/C=C/c2cc(-c3ccc4c(c3)OCO4)n[nH]2)cc1OC
SW-620
  growth at 100 µM: -78%
SR [1]
  growth at 10 µM: -13%
BT-549 [2]
  growth at 0.01 µM: 102%
MDA-MB-231
  IC50: 1.5 µM
NCI-H23
  growth at 100 µM: -67%
SK-MEL-2
  LC50 (concentration killing 50% of cells): 68 µM
  TGI: 23.2 µM
M14 [3]
  growth at 1 µM: 100%
RXF 393
  growth at 10 µM: -39%
Hs-578T
  growth at 0.1 µM: 92%
M14 [4]
  growth at 100 µM: -77%
RPMI-8226
  growth at 100 µM: -45%
SR [5]
  TGI: 6.48 µM
  CC50: > 100 µM
UACC-257
  LC50: 56.4 µM
  TGI: 22.1 µM
SF-539
  LC50 (concentration killing 50% of cells): 11.9 µM
  TGI: 4.47 µM
NCI-H226
  growth at 0.01 µM: 90%
OVCAR-5
  LC50: > 100 µM
  TGI: 23.2 µM
M14 [6]
  growth at 0.1 µM: 98%
ACHN
  LC50: > 100 µM
  TGI: 56.5 µM
DU-145
  growth at 0.1 µM: 100%
HT-29 [7]
  LC50: > 100 µM
  TGI: 11.3 µM
HL-60(TB) [8]
  growth at 100 µM: -38%
HL-60(TB) [9]
  growth at 0.1 µM: 96%
BT-549 [10]
  GI50: 1.97 µM
  LC50 (concentration killing 50% of cells): 8.98 µM
  TGI: 4.21 µM
786-0 [11]
  growth at 0.01 µM: 96%
HT-29 [12]
  growth at 1 µM: 93%
SK-MEL-28
  growth at 1 µM: 96%
NCI-H522 [13]
  growth at 100 µM: -89%
786-0 [14]
  growth at 100 µM: -83%
HOP-62
  growth at 1 µM: 87%
U-251
  growth at 0.1 µM: 91%
CCRF-CEM
  growth at 1 µM: 85%
SN12C
  growth at 0.01 µM: 92%
IGROV-1
  growth at 100 µM: -59%
NCI-H522 [15]
  growth at 10 µM: -45%
Malme-3M
  LC50: 61.8 µM
  TGI: 22.8 µM

## COc1cc(C(=O)/C=C/c2cc(-c3ccc4c(c3)OCO4)n[nH]2)cc(OC)c1OC
SW-620
  growth at 100 µM: -65%
SR [1]
  growth at 10 µM: -19%
BT-549 [2]
  growth at 0.01 µM: 97%
MDA-MB-231
  IC50: 1.2 µM
NCI-H23
  growth at 100 µM: -83%
M14 [3]
  growth at 1 µM: 96%
RXF 393
  growth at 10 µM: -76%
Hs-578T
  growth at 0.1 µM: 90%
M14 [4]
  growth at 100 µM: -84%
RPMI-8226
  growth at 100 µM: -47%
SR [5]
  GI50: 1.2 µM
  TGI: 5.63 µM
  CC50: > 100 µM
UACC-257
  GI50: 2.95 µM
  LC50: 32 µM
  TGI: 9.46 µM
SF-539
  GI50: 1.33 µM
  LC50 (concentration killing 50% of cells): 6.65 µM
  TGI: 2.98 µM
NCI-H226
  growth at 0.01 µM: 97%
OVCAR-5
  GI50: 2.63 µM
  LC50: 76.8 µM
  TGI: 9.6 µM
M14 [6]
  growth at 0.1 µM: 93%
ACHN
  GI50: 2.2 µM
  LC50: 18.8 µM
  TGI: 4.95 µM
DU-145
  growth at 0.1 µM: 99%
HT-29 [7]
  GI50: 2.45 µM
  LC50: > 100 µM
  TGI: 6.53 µM
HL-60(TB) [8]
  growth at 100 µM: -31%
HL-60(TB) [9]
  growth at 0.1 µM: 98%
BT-549 [10]
  GI50: 2.02 µM
  LC50 (concentration killing 50% of cells): 20.1 µM
  TGI: 5 µM
786-0 [11]
  growth at 0.01 µM: 99%
HT-29 [12]
  growth at 1 µM: 96%
SK-MEL-28
  growth at 1 µM: 92%
NCI-H522 [13]
  growth at 100 µM: -94%
786-0 [14]
  growth at 100 µM: -83%
HOP-62
  growth at 1 µM: 93%
U-251
  growth at 0.1 µM: 96%
CCRF-CEM
  growth at 1 µM: 83%
SN12C
  growth at 0.01 µM: 98%
IGROV-1
  growth at 100 µM: -90%
NCI/ADR-RES
  growth at 0.1 µM: 98%
NCI-H522 [15]
  growth at 10 µM: -71%
Malme-3M
  GI50: 1.85 µM
  LC50: 15.3 µM
  TGI: 4.69 µM
